The source of these data is ChEMBL document CHEMBL5038644 (J Med Chem, 2022).

Data set [1] addresses T1, Apelin receptor (Homo sapiens) (UniProt P35414).
T1 sequence (whole entry): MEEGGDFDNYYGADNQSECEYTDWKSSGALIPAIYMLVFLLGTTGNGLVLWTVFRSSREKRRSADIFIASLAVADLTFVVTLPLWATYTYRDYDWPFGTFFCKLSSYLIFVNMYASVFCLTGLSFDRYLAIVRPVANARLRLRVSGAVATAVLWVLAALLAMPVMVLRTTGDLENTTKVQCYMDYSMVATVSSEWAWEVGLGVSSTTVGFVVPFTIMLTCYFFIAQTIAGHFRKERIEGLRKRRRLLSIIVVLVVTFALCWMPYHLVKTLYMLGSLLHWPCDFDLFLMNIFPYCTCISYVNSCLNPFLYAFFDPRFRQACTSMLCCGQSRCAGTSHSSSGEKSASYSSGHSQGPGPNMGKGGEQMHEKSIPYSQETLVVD
The data set can be described thus: Agonist activity at human APJ expressed in HEK293 cells assessed as maximal efficacy for dissociation of G alphai1 from the G beta gamma subunit by BRET-based G protein dissociation assay relative to control. The data set is classed as functional, cell-based. The note with it: filed as agonist.

Data set [2] addresses T1, Apelin receptor (Homo sapiens). The data set can be described thus: Agonist activity at human APJ expressed in HEK293 cell membrane assessed as maximal efficacy for recruitment of beta-arrestin2 to receptor by BRET-based beta-arrestin2 assay relative to control. It counts as functional. The note with it: filed as agonist.
The next data set has as its target T2, Apelin receptor (Homo sapiens, UniProt P35414).
T2 sequence (P35414 whole entry): T1 sequence (whole entry)
The data set can be described thus: Agonist activity at human APJ expressed in HEK293 cell membrane assessed as recruitment of PDZ-RhoGEF Galpha12 to cell membrane by BRET-based G protein dissociation assay. It counts as functional.

Data set [3] deals with T1, Apelin receptor (Homo sapiens). Nature of the data set: Agonist activity at human APJ expressed in HEK293 cell membrane assessed as maximal efficacy for recruitment of PDZ-RhoGEF Galphai1 to cell membrane by BRET-based G protein dissociation assay relative to control. It counts as functional. The following applies: filed as agonist.
Data set [4] has as its system Rattus norvegicus. The data set can be described thus: Cardioprotective activity in Sprague-Dawley rat assessed as effect on left ventricular fractional shortening at 2 micromol/kg, sc after 6 hrs by echocardiography relative to control. The note with it: dose 2 µmol/kg. It counts as functional.
The subject of data set [5] is Rattus norvegicus. The data set can be described thus: Cardioprotective activity in Sprague-Dawley rat assessed as effect on left ventricular fractional shortening at 0.2 micromol/kg, sc after 3 hrs by echocardiography. The data set is classed as functional, organism-based. The following applies: dose 0.2 µmol/kg.
Data set [6] has as its system Rattus norvegicus. The data set can be described thus: Cardioprotective activity in Sprague-Dawley rat assessed as effect on cardiac output in sprague-dawley rat at 0.2 micromol/kg, sc after 3 hrs by echocardiography. It counts as functional, organism-based. The following applies: dose 0.2 µmol/kg.
Data set [7] deals with Rattus norvegicus. Nature of the data set: Cardioprotective activity in Sprague-Dawley rat assessed as effect on cardiac output in sprague-dawley rat at 2 micromol/kg, sc after 3 hrs by echocardiography relative to control. The following applies: dose 2 µmol/kg. It counts as functional.
Data set [8] relates to Rattus norvegicus. The data set can be described thus: Hypotensive effect in Sprague-Dawley rat assessed as decrease in blood pressure at 19.6 to 65 nmol/kg, iv relative to control. The data set is classed as functional. The following applies: dose 19.6-65 nmol/kg.
Data set [9] has as its system Rattus norvegicus. The data set can be described thus: Cardioprotective activity in Sprague-Dawley rat assessed as effect on cardiac output in sprague-dawley rat at 2 micromol/kg, sc after 6 hrs by echocardiography relative to control. The note with it: dose 2 µmol/kg. It counts as functional.
The nature of data set [10]: Stability in Sprague-Dawley rat plasma at 3 mg/kg, iv upto 2 hrs by LC/MS-MS analysis. The data set is classed as ADME, organism-based. The following applies: in vivo.
The subject of data set [11] is Rattus norvegicus. The data set can be described thus: Cardioprotective activity in Sprague-Dawley rat assessed as effect on left ventricular fractional shortening at 2 micromol/kg, sc after 3 hrs by echocardiography relative to control. The data set is classed as functional. The note with it: dose 2 µmol/kg.
Data set [12] can be described thus: Stability in Sprague-Dawley rat plasma assessed as half life measured upto 24 hrs by UPLC-MS analysis. The data set is classed as ADME, cell-free.
Data set [13] can be described thus: AUC in Sprague-Dawley rat plasma at 3 mg/kg, iv by LC/MS-MS analysis. The data set is classed as ADME, organism-based. The arrangement: dose 3 mg/kg. The following applies: in vivo.

Structures are written as SMILES. pEC50: −log10 of the molar value. Active and inactive are the calls of the source. The rule behind the calls is not given here. Bounds are passed on as bounds.

For the compound `CCCC[C@H](NC(=O)[C@@H]1CCCN1C(=O)CNC(=O)[C@H](CCCCN)NC(=O)[C@@H]1CCCC[C@H](NC(=O)[C@H](CCCNC(=N)N)NC(=O)[C@@H]2CCC(=O)N2)C(=O)N[C@@H](CCCNC(=N)N)C(=O)N[C@@H](CC(C)C)C(=O)N[C@@H](CO)C(=O)N1)C(=O)N1CCC[C@H]1C(=O)N[C@@H](Cc1ccccc1)C(=O)O`, the Emax is 102% in [1], 75% in data set [2] and 100% in data set [3]. For the same compound, the pEC50 on Apelin receptor is 7.20.

In the case of `CC(C)C[C@@H]1NC(=O)[C@H](CCCNC(=N)N)NC(=O)[C@@H](N)C/C=C\C[C@@H](C(=O)N[C@@H](CCCCN)C(=O)NCC(=O)N2CCC[C@H]2C(=O)N[C@H](Cc2ccc3ccccc3c2)C(=O)O)NC(=O)[C@H](CO)NC1=O`, the Emax in [1] was 105%; in data set [2], 55%; in [3], 40%. Moreover, the Activity was found to be 17% in the data set on Rattus norvegicus [4], 22% in the data set on Rattus norvegicus [7], 16% in the data set with Rattus norvegicus [9] and 22% with Rattus norvegicus [11]. The result in the data set with Rattus norvegicus [5] and in the data set with Rattus norvegicus [6] was Active. In addition, in the data set on Rattus norvegicus [8], the result was inactive. For the same compound, the Stability result in [10] is reported as “Stable”. Besides, the half-life in [12] is more than 24 h. The AUC in data set [13] amounted to 8.8 mg·min/mL.
